pEC50, pIC50, pKd: −log10 of the molar value. Where two headings read alike, the source gives them in different places.
Key:
HDMB03 cells = assay: cell viability, CellTiter-Glo; type: cell-based, human; conditions: Homo sapiens; for EC50: read-out: EC50 (μM) HDMB03
Protocol: Human G3 medulloblastoma or mouse SHH medulloblastoma cells were grown as neurospheres in supplemented neurobasal medium, as previously described (Kawauchi et al., 2012.)
(§1) After 7 days of treatment, an equal volume of CellTiter-Glo reagent (G7572, Promega) was added and the luminescence signal was measured using an automated Envision plate reader (Perkin-Elmer). Luminescence data were normalized by log10 transformation prior to calculating the percent inhibition using the following equation:
(§2) 100*(negative control mean −compound value)/(negative control mean −positive control mean).
High-throughput assay data were analyzed using Robust Interpretation of Screening Experiments (RISE) application written in Pipeline Pilot (Accelrys, v. 8.5) and the R program (R Development Core Team).
Dose-response curves were calculated by regressing the median percent inhibition obtained over triplicate experiments to log 10-transformed concentrations. Non-linear regression was then performed using the R drc package with the four parameter log-logistic function (LL2.4) (Ritz and Streibig, 2009). Curves were fit under three different constraints: (1) all parameters free, (2) high response fixed to 100, (3) low response fixed to 0; and the best fit from these three nested models was selected using the anova.drc function.

[1] = test system: c-Myc expression in HDMB03 cells; assay: c-Myc expression inhibition, high content microscopy (HCM); type: cell-based, human; conditions: Homo sapiens; for EC50: read-out: EC50 (μM) Myc-inhibition
Protocol: 3000 human G3 medulloblastoma or 2000 mouse SHH medulloblastoma cells per well were plated into 384-well plates (6007710, Perkin Elmer) in 30 μL of supplemented neurobasal medium using a Wellmate automated dispenser (Thermo Matrix). After 24 hours, 125 nl of compound was transferred via pin tool, resulting in a final drug concentration from 2 nM to 40 μM. 72 hours after adding the drug, the plates were fixed with 4% formaldehyde for 20 min. After fixation the cells were then washed 3 times with 75 μl of PBS. The cells were then permeabilized with 0.1% Triton-X 100 for 15 minutes at 25° C. and blocked using 1% BSA in PBS for 1 hour at 25° C. The primary antibody against c-Myc Ab (#9402, Cell Signaling) at a 1:400 dilution was diluted in 1% BSA in PBS. This mixture was added to each well before incubation overnight at 4° C. Each well was then washed 3 times with PBS using a Biotek ELX405 Select plate washer, and incubated for 1 hour at 25° C. with a solution containing 1/400 goat α-rabbit-Alexa-488 (4412S, Cell Signaling) and 1 μM Hoechst 33342 to detect nuclear material (H3570, Molecular Probes). Two images were captured of each well at 10× using a GE Healthcare InCell 6000 at 405 nM to detect nuclear staining and 488 nM to detect c-Myc. All data were analyzed using the multi-target analysis algorithm of the GE InCell Analyzer Workstation software. The number of nuclear objects in each well, as well as all nuclear measurements, was determined through nuclear masks over the Hoechst staining. C-Myc staining was then measured using top-hat segmentation in the entire cell.

NALM-16 = assay: anti-proliferative activity; type: cell-based; conditions: NALM16; Table 5
Protocol: as §1, §2

BRD4-BD2 = BRD4-BD2 (Homo sapiens (Human), UniProt O60885); assay: competitive TR-FRET assay, BET-BD with acetylated peptide ligand; type: binding; conditions: for pIC50: Table 2, inhibitor potency by TR-FRET
Protocol: (§3) Inhibitor potency was determined using a competitive TR-FRET assay as detailed herein, measuring interaction of the respective BET-BD with an acetylated peptide ligand (Table 2).

BRD4-BD1 = BRD4-BD1 (Homo sapiens (Human), UniProt O60885); assay: as above; type: binding; conditions: for pIC50: Table 2, inhibitor potency by TR-FRET
Protocol: as §3

BRD2-BD1 [2] = biological target: T1, BRD2-BD1 (Homo sapiens (Human), UniProt P25440); assay: as above; type: binding; conditions: for EC50: read-out: EC50 (μM) BRD2(1); for pIC50: Table 2, inhibitor potency by TR-FRET
Protocol: as §3
Target sequence in this assay (P25440 74-180): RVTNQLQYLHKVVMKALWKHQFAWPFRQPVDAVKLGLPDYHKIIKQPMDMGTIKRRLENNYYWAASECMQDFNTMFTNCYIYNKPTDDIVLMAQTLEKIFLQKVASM

BRD2-BD2 [3] = biological target: T2, BRD2-BD2 (Homo sapiens (Human), UniProt P25440); assay: as above; type: binding; conditions: for EC50: read-out: EC50 (μM) BRD2(2); for pIC50: Table 2, inhibitor potency by TR-FRET; for BD1/BD2: Table 2, ratio BRD2-BD1/BRD2-BD2
Protocol: as §3
Target sequence in this assay (P25440 344-453): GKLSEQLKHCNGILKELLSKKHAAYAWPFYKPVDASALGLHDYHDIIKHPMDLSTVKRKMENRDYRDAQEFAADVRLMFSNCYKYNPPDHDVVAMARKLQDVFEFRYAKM

BRDT = BRDT (Homo sapiens, UniProt Q58F21); assay: as above; type: binding; conditions: for pIC50: Table 2, inhibitor potency by TR-FRET
Protocol: as §3

BRD3-BD1 = BRD3-BD1 (Homo sapiens (Human), UniProt Q15059); assay: as above; type: binding; conditions: for EC50: Table 6, read-out: EC50 (μM) BRD3(1); for pIC50: Table 2, inhibitor potency by TR-FRET
Protocol: as §3

MV-4-11 = assay: anti-proliferative activity; type: cell-based; conditions: Homo sapiens, MV4-11; Table 7
Protocol: as §1, §2

BRD4(2) = BRD4(2) (Homo sapiens (Human), UniProt O60885); assay: BROMOscan KD determination; type: binding
Excerpt: (§4) DiscoverX® can screen compounds against all ˜42 bromodomains (a service called BROMOscan) and perform follow-up KD determination. This service is considered the industrial standard for bromodomain inhibitor comparisons.

BRD3(1) = BRD3(1) (Homo sapiens (Human), UniProt Q15059); assay: BROMOscan KD determination; type: binding; conditions: Table 10
Excerpt: as §4

BRD3(2) = BRD3(2) (Homo sapiens (Human), UniProt Q15059); assay: BROMOscan KD determination; type: binding
Excerpt: as §4

BRD4(1) = BRD4(1) (Homo sapiens (Human), UniProt O60885); assay: BROMOscan KD determination; type: binding; conditions: Table 10
Excerpt: as §4

BRDT(1) = BRDT(1) (Homo sapiens (Human), UniProt Q58F21); assay: BROMOscan KD determination; type: binding; conditions: Table 10
Excerpt: (§5) DiscoverX® can screen compounds against all ˜42 bromodomains (a service called BROMOscan) and perform follow-up KD determination. This service is considered the industrial standard for bromodomain inhibitor comparisons. […] Dots are symbolic of inhibition of the compound at this concentration; the larger the size of the dot, the greater the activity of the compound. […] Though these compounds are selective for the BET family, the selectivity within the BET family is poor. The results of a competitive binding experiment between compounds 19 (left), 41 (center), and 56 (right) (at a single concentration, 1 μM) and a control for each of the bromodomains are shown in FIG. 5.

BRD2(2) = BRD2(2) (Homo sapiens (Human), UniProt P25440); assay: BROMOscan KD determination; type: binding
Excerpt: as §5

BRD2(1) = BRD2(1) (Homo sapiens (Human), UniProt P25440); assay: BROMOscan KD determination; type: binding; conditions: Table 10
Excerpt: as §5

BRDT(2) = BRDT(2) (Homo sapiens (Human), UniProt Q58F21); assay: BROMOscan KD determination; type: binding
Excerpt: as §5

BRD2-BD1 [4] = biological target: T1, BRD2-BD1; assay: isothermal titration calorimetry analysis of binding; conditions: ITC; for ΔG / ΔH / −TΔS: BRD2-BD1; for pKd: BRD2-BD1, average of 3 experiments, read-out: average Kd
Protocol: (§6) b. Isothermal Titration Calorimetry Analysis of Binding to Brd2-BD1 and Brd2-BD2
(§7) Binding of compounds to BRD2 was monitored using an ITC200 (Microcal, Piscataway, N.J.). Either Brd2.1 (74-194) or Brd2.2 (348-455) was dialyzed overnight into a solution containing 50 mM HEPES, pH 7.0 and 150 mM NaCl at 15° C. Enzyme concentrations were determined after dialysis by absorbance at 280 nm using a molar extinction coefficient (ε280) of 25,565 M^−1 cm^−1 (2.1) or 16,055 M^−1 cm^−1 (2.2). Enzyme was diluted in dialysis buffer and 39.6 μL was loaded into the syringe. Compounds were dissolved in the same dialysis buffer and loaded in the cell to a volume of 204 μL. Injections were carried out by serial injections of enzyme; first, 1 injection of 1 μL, followed by 19 incremental injections of 2 μL, at 120 second intervals. Data from the first injection was excluded, due to pre-equilibration mixing between the contents of cell and syringe at the syringe tip. Peak areas were integrated, normalized, and then fitted by non-linear regression using the independent sites model in Origin™ (version 2.3.6, Microcal, Piscataway, N.J.).
Target sequence in this assay (P25440 74-194): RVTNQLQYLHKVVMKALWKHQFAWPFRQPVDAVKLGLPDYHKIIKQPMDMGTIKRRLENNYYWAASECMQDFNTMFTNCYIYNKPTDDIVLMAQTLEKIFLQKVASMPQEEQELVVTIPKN

BRD2-BD2 [5] = biological target: T2, BRD2-BD2; assay: as above; conditions: ITC; for ΔG / ΔH / −TΔS: BRD2-BD2; for pKd: BRD2-BD2, average of 3 experiments, read-out: average Kd
Protocol: as §6, §7
Target sequence in this assay (P25440 348-455): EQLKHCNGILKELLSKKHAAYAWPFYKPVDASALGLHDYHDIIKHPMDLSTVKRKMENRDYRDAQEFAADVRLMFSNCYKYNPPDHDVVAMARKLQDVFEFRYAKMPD

BRD2-BD2 [6] = assay: as above; conditions: ITC Kd BRD2-BD1 / BRD2-BD2
Protocol: as §6, §7

[7] = Table 6, head names no target, BRDT by comparison with Table 4, read-out: EC50

Sequence of BRD3-BD1 (Q15059 34-140): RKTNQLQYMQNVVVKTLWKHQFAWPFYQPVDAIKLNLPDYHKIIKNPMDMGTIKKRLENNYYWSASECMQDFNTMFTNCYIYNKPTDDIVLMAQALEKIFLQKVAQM
Sequence of BRD3(2) (Q15059 306-415): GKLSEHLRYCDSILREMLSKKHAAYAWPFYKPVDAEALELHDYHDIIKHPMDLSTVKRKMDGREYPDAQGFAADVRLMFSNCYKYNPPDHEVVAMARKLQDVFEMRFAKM
Sequence of BRD2(2) (P25440 344-453): as the sequence (P25440 344-453) above
Sequence of BRD3(1) (Q15059 34-140): as the sequence (Q15059 34-140) above
Sequence of BRD2(1) (P25440 74-180): as the sequence (P25440 74-180) above

EC50 ([1]; HD-MB03, Table 7)	EC50 (MV-4-11)	EC50 (BRD2-BD1 [2]; Table 6)	[2(1)/2(2)] (BRD2-BD2 [3]; Table 6, ratio of EC50)	Compound	EC50 (HDMB03 cells; HD-MB03, Table 7)	pIC50 (BRD4-BD2)	pIC50 (BRD4-BD1)	pIC50 (BRD2-BD1 [2])	pIC50 (BRD2-BD2 [3])	BD1/BD2 (BRD2-BD2 [3])	pIC50 (BRD3-BD1)	ΔG (BRD2-BD1 [4])	ΔH (BRD2-BD1 [4])	−TΔS (BRD2-BD1 [4])	pKd (BRD2-BD1 [4])	ΔG (BRD2-BD2 [5])	ΔH (BRD2-BD2 [5])	−TΔS (BRD2-BD2 [5])	pKd (BRD2-BD2 [5])	Selectivity (2-1/2-2) (BRD2-BD2 [6])	also measured
				CC(=O)Nc1cccc(-c2ccc3c(c2)[C@H](Nc2ccc(Cl)cc2)C[C@H](C)N3C(C)=O)c1 [compound 10]																	EC50 (HDMB03 cells; HD-MB03, Table 5): 1.18 µM; EC50 ([1]; HD-MB03, Table 5): 0.68 µM; EC50 (NALM-16): 0.33 µM; 4(1)/4(2) (BRD4-BD2; Table 4, ratio of EC50): 15; EC50 (BRD4-BD2; Table 4, read-out: EC50 (μM) BRD4(2)): 0.21 µM; EC50 (BRD4-BD1; Table 4, read-out: EC50 (μM) BRD4(1)): 3.1 µM; EC50 (BRD2-BD1 [2]; Table 4): 2.6 µM; [2(1)/2(2)] (BRD2-BD2 [3]; Table 4, ratio of EC50): 33; EC50 (BRD2-BD2 [3]; Table 4): 0.08 µM; pEC50 (BRDT; Table 4, read-out: BRDT EC50): 5.43; pEC50 (BRD3-BD1; Table 4, read-out: BRD3(1)): 5.72
0.38 µM	0.083 µM	2.6 µM	16.25	CCCCNc1cccc(-c2ccc3c(c2)[C@H](Nc2ccc(C(=O)OC)cc2)C[C@H](C)N3C(C)=O)c1 [compound 45]	0.56 µM																EC50 (BRD2-BD2 [3]; Table 6): 0.16 µM; pEC50 (BRDT; [7]): 5.14; EC50 (BRD3-BD1): 2.1 µM
0.34 µM	0.018 µM	1.3 µM	7.6	CCCNc1cccc(-c2ccc3c(c2)[C@H](Nc2ccc(C(=O)OC)cc2)C[C@H](C)N3C(C)=O)c1 [compound 46]	0.35 µM																EC50 (BRD2-BD2 [3]; Table 6): 0.17 µM; pEC50 (BRDT; [7]): 5.59; EC50 (BRD3-BD1): 1 µM
0.25 µM	0.008 µM	2.3 µM	7.2	COC(=O)c1ccc(N[C@@H]2C[C@H](C)N(C(C)=O)c3ccc(-c4cccc(NCCC(F)(F)F)c4)cc32)cc1 [compound 47]	0.35 µM																4(1)/4(2) (BRD4(2); BROMOscan KD ratio): 11.4; pKd (BRD4(2); BROMOscan, Table 10): 8.55; pKd (BRD3(1)): 7.43; 3(1)/3(2) (BRD3(2); BROMOscan KD ratio): 16.1; pKd (BRD3(2); BROMOscan, Table 10): 8.64; pKd (BRD4(1)): 7.49; pKd (BRDT(1)): 7.68; [2(1)/2(2)] (BRD2(2); BROMOscan KD ratio): 8.2; pKd (BRD2(2); BROMOscan, Table 10): 8.30; pKd (BRD2(1)): 7.39; T(1)/T(2) (BRDT(2); BROMOscan KD ratio): 2.6; pKd (BRDT(2); BROMOscan, Table 10): 8.09; EC50 (BRD2-BD2 [3]; Table 6): 0.32 µM; pEC50 (BRDT; [7]): 5.24; EC50 (BRD3-BD1): 1.9 µM
				CC(=O)N1c2ccc(-c3ccoc3)cc2[C@H](NC(=O)OC(C)C)C[C@@H]1C [compound 51]		5.37	5.24	5.14	5.85	5	5.64	-8.96 kcal/mol	-9.90 kcal/mol	0.94 kcal/mol	6.79	-8.61 kcal/mol	-6.31 kcal/mol	-2.29 kcal/mol	6.52	0.5	pEC50 (HDMB03 cells; HD-MB03, HDMB03 cells, read-out: cell viability EC50): 5.48; pEC50 ([1]; HD-MB03, HDMB03 cells, read-out: c-Myc expression EC50): 6.00; pIC50 (BRDT): 4.64
				CC(=O)N1c2ccc(-c3cccs3)cc2[C@H](NC(=O)OC(C)C)C[C@@H]1C [compound 52]		5.52	< 4.11	5.77	6.47	5	5.92	-9.52 kcal/mol	-8.27 kcal/mol	-1.25 kcal/mol	7.21	-10.12 kcal/mol	-7.18 kcal/mol	-2.94 kcal/mol	7.68	2.9	
				CC(=O)N1c2ccc(-c3ccsc3)cc2[C@H](NC(=O)OC(C)C)C[C@@H]1C [compound 53]		5.34	4.85	5.14	6.01	7	5.51	-9.43 kcal/mol	-7.69 kcal/mol	-1.74 kcal/mol	7.14	-10.25 kcal/mol	-6.92 kcal/mol	-3.33 kcal/mol	7.77	4.2	
				CC(=O)N1c2ccc(-c3ccc[nH]3)cc2[C@H](NC(=O)OC(C)C)C[C@@H]1C [compound 54]		5.07	5.77	5.81	< 4.31		5.25	-9.08 kcal/mol	-6.90 kcal/mol	-2.18 kcal/mol	6.88	-9.82 kcal/mol	-6.89 kcal/mol	-2.92 kcal/mol	7.45	3.7	
				CC(=O)N1c2ccc(-c3cc[nH]c3)cc2[C@H](NC(=O)OC(C)C)C[C@@H]1C [compound 55]		5.92	5.89	5.77	6.43	5	6.59	-9.28 kcal/mol	-7.33 kcal/mol	-1.95 kcal/mol	7.04	-10.15 kcal/mol	-7.01 kcal/mol	-3.32 kcal/mol	7.70	4.6	pIC50 (BRDT): 4.31

From patent publication US11028051B2, “Tetrahydroquinoline-based bromodomain inhibitors” (St. Jude Children's Research Hospital, priority 2016, dated 2021)
